Data taken from patent US11385229B2, “Amplification technology using dual enzyme cascade detection” (The Regents of the University of California, priority 2017, dated 2022).

Columns and labels:
[1] = tested on: E. coli isolated from CA-UTI urine samples; test: susceptibility testing of E. coli cultured from CA-UTI urine samples; type: cell-based; conditions: 23 of 34 E. coli from CA-UTI samples
Method: In order to establish the threshold Δλ405 of DETECT, that delineates β-lactam-susceptible from β-lactam-resistant urine samples, we simultaneously analyzed urine samples by traditional microbiology techniques as a standard for comparison (raw Δλ405 of DETECT values shown in Table S1). As such, urine samples were cultured for identification of E. coli, and E. coli isolates were tested for susceptibility to ampicillin and cephalexin. Samples were separated for analyses based on susceptibility or resistance to these agents, and an average Δλ405 value was calculated for each group. The average Δλ405 values corresponding to β-lactam-resistant and β-lactam-susceptible samples are shown in FIG. 5B, where the average Δλ405 of samples defined by traditional susceptibility analyses as resistant to ampicillin or cephalexin was 1.026, and the average Δλ405 in samples containing susceptible E. coli was 0.2990 (p=0.00048, two-tailed t-test). Finally, the threshold value was defined as 0.616, three standard deviations greater than the average Δλ405 of β-lactam-susceptible isolates. Therefore, samples with Δλ405>0.616 were defined as “positive” by DETECT (or resistant to early-generation β-lactams), and samples with Δλ405<0.616 were defined as “negative” by DETECT (or susceptible to β-lactams), the latter of which would qualify for treatment with an early-generation β-lactam. […]

[2] = tested on: K. pneumoniae clinical isolates; test: standard susceptibility testing (disc diffusion); type: cell-based; also: key: S, susceptible; R, resistant
[3] = tested on: E. coli clinical isolates; test: standard susceptibility testing (disc diffusion); as to Ampicillin susceptibility: key: S, susceptible; R, resistant; as to Cephalexin susceptibility: key: S, susceptible; R, resistant; type: cell-based; conditions: for standard susceptibility testing: E. coli isolate SF334 (blaTEM-1)
papain = papain (Carica papaya, UniProt P00784); conditions: BAPA as papain substrate; cited from earlier work
Chain of papain (P00784 134-345): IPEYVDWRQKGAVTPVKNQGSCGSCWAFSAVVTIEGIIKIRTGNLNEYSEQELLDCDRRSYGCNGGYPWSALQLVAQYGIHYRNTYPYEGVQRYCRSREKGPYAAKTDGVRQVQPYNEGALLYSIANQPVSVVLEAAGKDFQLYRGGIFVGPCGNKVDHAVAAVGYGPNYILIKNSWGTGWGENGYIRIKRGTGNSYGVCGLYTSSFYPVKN

[4] = molecular target: recombinant TEM-1 β-lactamase (Escherichia coli, UniProt P62593); conditions: recombinant TEM-1, absorbance 486 nm
Chain of recombinant TEM-1 β-lactamase (P62593 24-286 limits assumed): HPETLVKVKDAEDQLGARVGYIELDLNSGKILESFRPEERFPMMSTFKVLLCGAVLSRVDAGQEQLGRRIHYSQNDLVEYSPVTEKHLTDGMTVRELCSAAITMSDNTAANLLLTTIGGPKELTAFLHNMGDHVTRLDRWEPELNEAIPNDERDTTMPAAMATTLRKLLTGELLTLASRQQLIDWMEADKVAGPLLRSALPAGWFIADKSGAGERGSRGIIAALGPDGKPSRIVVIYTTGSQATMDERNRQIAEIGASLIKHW
From the text: To verify the targeting capacity and establish the amplification capacity of thiophenol-β-lac, we first targeted the β-lactamase TEM-1, which mediates resistance to β-lactam antibiotics, such as ampicillin We compared the sensitivity of DETECT against the standard chromogenic β-lactamase probe nitrocefin (FIG. 3)^19. Recombinant TEM-1 activity was quantified by measuring the formation of the hydrolytic chromogenic products from DETECT or nitrocefin in a time-dependent manner with a microplate reader (DETECT hydrolytic product=405 nm, and nitrocefin hydrolytic product=486 nm).
(B) Time-dependent plot of β-lactamase activity assay performed with DETECT, where varied concentrations of recombinant TEM-1 were incubated with the DETECT system in a 96-well plate for 90 min. The absorbance at 405 nm was collected in 5 min intervals and plotted against time. (C) Photograph of color change caused from DETECT amplification in wells where TEM-1 was present at increasing concentrations from right to left. The rightmost well is a control well where all the components were incubated in the absence of TEM-1. (D) Time-dependent biochemical experiment where varied concentrations of TEM-1 were incubated with the standard β-lactamase probe nitrocefin in a 96-well plate, and the respective absorbance values were collected on a microplate reader (486 nm). […]

[5] = tested on: TEM-1-producing E. coli clinical isolate SF334; type: cell-based; conditions: E. coli isolate SF334 (TEM-1)
Method: Whole-cell suspensions of SF334 were prepared as described above. First, we confirmed β-lactamase activity in the TEM-1-producing clinical isolate by incubating 10^6 CFU of SF334 with the DETECT components (FIG. 4A), then collecting absorbance values at 405 nm after 45, 60, 120, and 180 min of incubation. […] The analogous experiment was performed with nitrocefin, where whole-cell suspensions of SF334 and SF505 were incubated with nitrocefin. As indicated in the literature, samples were incubated with nitrocefin for up to only 30 min to minimize background signal associated with non-selective hydrolysis^14.
Subsequent studies were performed to establish the detection limit of DETECT relative to nitrocefin, by serially diluting isolate SF334 in 100-fold increments. […]
(A) Schematic representation of the experiments performed with E. coli clinical isolates, where bacterial suspensions were incubated with DETECT components thiophenol-β-lac, disulfide-protected papain, and BAPA in a 96-well plate. Following 1 h of incubation, the sample wells were analyzed with a microplate reader and the absorbance at 405 nm was collected. […] (C) Plot displaying the signal outputs generated by DETECT in the presence of varying quantities of SF334, which was carried out to define the signal threshold of DETECT compared to the current standard, nitrocefin. […]

[6] = K. pneumoniae isolate ATCC 700603, β-lactamase gene SHV-18 (ESBL)
[7] = K. pneumoniae isolate BR1, β-lactamase gene SHV-185
[8] = K. pneumoniae isolate BR27, β-lactamase gene SHV-11
[9] = K. pneumoniae isolate BR28, β-lactamase gene KPC-2, SHV-11
[10] = K. pneumoniae isolate BR45, β-lactamase gene SHV-38/168
[11] = K. pneumoniae isolate BR50, β-lactamase gene SHV-62
[12] = K. pneumoniae isolate BR52, β-lactamase gene SHV-132
[13] = K. pneumoniae isolate BR313, β-lactamase gene SHV-83/187
[14] = K. pneumoniae isolate SF412, β-lactamase gene ND
[15] = K. pneumoniae isolate SF519, β-lactamase gene ND
[16] = E. coli isolate BE30, β-lactamase gene SHV-1
[17] = E. coli isolate BE115, β-lactamase gene OXA-1
[18] = E. coli isolate BE372, β-lactamase gene TEM-1 (1b)
[19] = E. coli isolate BE527, β-lactamase gene SHV-1
[20] = E. coli isolate BE1004, β-lactamase gene TEM-1 (1c)
[21] = E. coli isolate BE1173, β-lactamase gene TEM-1 (1b)
[22] = E. coli isolate BE1335, β-lactamase gene SHV-1
[23] = E. coli isolate BR2, β-lactamase gene KPC-2
[24] = E. coli isolate SF105, β-lactamase gene TEM-1
[25] = E. coli isolate SF141, β-lactamase gene CMY-2
[26] = E. coli isolate SF148, β-lactamase gene CTX-M-14
[27] = E. coli isolate SF207, β-lactamase gene CMY-2
[28] = E. coli isolate SF384, β-lactamase gene ND
[29] = E. coli isolate SF410, β-lactamase gene CTX-M-15
[30] = E. coli isolate SF487, β-lactamase gene CTX-M-14
[31] = E. coli isolate SF674, β-lactamase gene CTX-M-15

With CC1(C)S[C@@H]2[C@H](NC(=O)[C@H](N)c3ccccc3)C(=O)N2[C@H]1C(=O)O [Ampicillin, ampicillin] as the compound, how does the “E. coli isolates susceptible” value [1] read?
Its value is 68%.

And the Ampicillin susceptibility [2, 6]?
Its Ampicillin susceptibility is “R”.

And the Ampicillin susceptibility [2, 7]?
The Ampicillin susceptibility was “R”.

And the Ampicillin susceptibility [2, 8]?
Its Ampicillin susceptibility is “R”.

And the Ampicillin susceptibility [2, 9]?
The Ampicillin susceptibility was “R”.

What about the Ampicillin susceptibility [2, 10] of the same compound?
The Ampicillin susceptibility was “R”.

And the Ampicillin susceptibility [2, 11]?
Its Ampicillin susceptibility is “R”.

And the Ampicillin susceptibility [2, 12]?
The Ampicillin susceptibility was “R”.

And the Ampicillin susceptibility [2, 13]?
The Ampicillin susceptibility was “R”.

And the Ampicillin susceptibility [2, 14]?
The Ampicillin susceptibility was “S”.

And the Ampicillin susceptibility [2, 15]?
The Ampicillin susceptibility was “S”.

And the Ampicillin susceptibility [3, 16]?
The Ampicillin susceptibility was “R”.

And the Ampicillin susceptibility [3, 17]?
The Ampicillin susceptibility was “R”.

And the Ampicillin susceptibility [3, 18]?
Its Ampicillin susceptibility is “R”.

And the Ampicillin susceptibility [3, 19]?
The Ampicillin susceptibility was “R”.

What about the Ampicillin susceptibility [3, 20] of the same compound?
Its Ampicillin susceptibility is “R”.

And the Ampicillin susceptibility [3, 21]?
The Ampicillin susceptibility was “R”.

And the Ampicillin susceptibility [3, 22]?
The Ampicillin susceptibility was “R”.

What about the Ampicillin susceptibility [3, 23] of the same compound?
Its Ampicillin susceptibility is “R”.

What about the Ampicillin susceptibility [3, 24] of the same compound?
Its Ampicillin susceptibility is “R”.

And the Ampicillin susceptibility [3, 25]?
The Ampicillin susceptibility was “R”.

What about the Ampicillin susceptibility [3, 26] of the same compound?
The Ampicillin susceptibility was “R”.

And the Ampicillin susceptibility [3, 27]?
The Ampicillin susceptibility was “R”.

What about the standard susceptibility testing [3] of the same compound?
Its standard susceptibility testing is “resistance”.

What about the Ampicillin susceptibility [3, 28] of the same compound?
The Ampicillin susceptibility was “S”.

And the Ampicillin susceptibility [3, 29]?
The Ampicillin susceptibility was “R”.

And the Ampicillin susceptibility [3, 30]?
The Ampicillin susceptibility was “R”.

What about the Ampicillin susceptibility [3, 31] of the same compound?
Its Ampicillin susceptibility is “R”.

Which “KCAT value with papain” value (papain) does the source give for N=C(N)NCCC[C@H](NC(=O)c1ccccc1)C(=O)Nc1ccc([N+](=O)[O-])cc1 [BAPA, N-benzoyl-L-arginine-p-nitroaniline] here?
The value was 0.7 to 0.8 s⁻¹.

Which results are given for CC1=C(C(=O)O)N2C(=O)[C@@H](NC(=O)[C@H](N)c3ccccc3)[C@H]2SC1 [Cephalexin, cephalexin]?
Cephalexin susceptibility [2, 6]: R; Cephalexin susceptibility [2, 7]: S; Cephalexin susceptibility [2, 8]: S; Cephalexin susceptibility [2, 9]: R; Cephalexin susceptibility [2, 10]: S; Cephalexin susceptibility [2, 11]: S; Cephalexin susceptibility [2, 12]: S; Cephalexin susceptibility [2, 13]: S; Cephalexin susceptibility [2, 14]: S; Cephalexin susceptibility [2, 15]: S; Cephalexin susceptibility [3, 16]: S; Cephalexin susceptibility [3, 17]: S; Cephalexin susceptibility [3, 18]: R; Cephalexin susceptibility [3, 19]: S; Cephalexin susceptibility [3, 20]: S; Cephalexin susceptibility [3, 21]: S; Cephalexin susceptibility [3, 22]: S; Cephalexin susceptibility [3, 23]: R; Cephalexin susceptibility [3, 24]: R; Cephalexin susceptibility [3, 25]: R; Cephalexin susceptibility [3, 26]: R; Cephalexin susceptibility [3, 27]: R; standard susceptibility testing [3]: resistance; Cephalexin susceptibility [3, 28]: S; Cephalexin susceptibility [3, 29]: R; Cephalexin susceptibility [3, 30]: R; Cephalexin susceptibility [3, 31]: R

Which results are given for O=C(Cc1cccs1)N[C@@H]1C(=O)N2C(C(=O)O)=C(/C=C/c3ccc([N+](=O)[O-])cc3[N+](=O)[O-])CS[C@H]12 [nitrocefin]?
limit of detection of TEM-1 [4]: 4 nM; suspension of SF334 needed to identify β-lactamase activity above background [5]: 10^7 CFU/mL
